Measured values as given in patent publication EP3822285A1, “VARIANT NISIN PEPTIDES” (University College Cork-National University of Ireland, Cork, priority 2019, dated 2021).
≈ marks a conversion by molar mass, not a printed value. Where “and” joins values, the source holds several entries; their conditions need not be identical. Identical values can stand only once. Marks after values point to notes of the source that are not given here.

Experiments:
Type in all cases: cell-based
[1] = test system: T. aquaticus; assay: Minimum inhibitory concentration assay (Thermus); conditions: for MIC: pure peptide, mean of triplicate assays
Method: (§1) Minimum inhibitory concentration (MIC) determinations for gram negative Thermus strains were carried out in triplicate in round bottom microtitre plates (Corning). 96 well microtitre plates were pre-treated with bovine serum albumin (BSA) prior to addition of the peptides. Briefly, to each well of the microtire plates 200 µl of d.H2O (filtered with 0.2 µm filter) containing 1% (w/w) BSA was added and incubated at 37°C for 30 mins. The wells were washed with 200 µl of IX phosphate buffered saline (PBS) for 2 times after removing 1% BSA d.H2O. 100 µl of growth media, i.e., Castenholz, was added to each well. […] Target strains were grown overnight as per conditions mention above, 0.5 ml of overnight was subcultured in to 10 mls of fresh Castenholz medium and allowed to grow to an OD600 of ∼0.5. 20µl of this subculture was added to 980µl of media, 150µl of this dilution added to 14.85 ml of growth media. 100µl of this dilution added to each well resulting in a final inoculum of ∼10^5 cfu/ml in 200µl. The plates were incubated at 55° C for 3 days and the MIC was determined as the lowest concentration at which no growth was visible.
(§2) The bioactivity of cell-free supernatant can be influenced by altered diffusion rates, solubility, production or specific activity. To determine to what extent, if any, the bioactivity noted above is due to increased specific activity, nisin A (control) and the derivatives were purified and their molecular weights confirmed by MALDI TOF mass spectrometry (Table: 6) (Figure: 4). These peptides were used to perform minimum inhibitory concentration assays against six Thermus strains, i.e., T. thermophilus HB27, T. scotoductus SE-1, T. rehai, T. oshimai, T. aquaticus and T. brockianus.

[2] = test system: T. brockianus; assay: Minimum inhibitory concentration assay (Thermus); conditions: pure peptide, mean of triplicate assays
Method: as §1, §2

[3] = test system: T. thermophilus HB27; assay: Minimum inhibitory concentration assay (Thermus); conditions: for MIC: pure peptide, mean of triplicate assays
Method: as §1, §2

[4] = test system: T. oshimai; assay: Minimum inhibitory concentration assay (Thermus); conditions: pure peptide, mean of triplicate assays
Method: as §1, §2

[5] = test system: T. rehai; assay: Minimum inhibitory concentration assay (Thermus); conditions: for MIC: pure peptide, mean of triplicate assays
Method: as §1, §2

[6] = test system: T. scotoductus SE-1; assay: Minimum inhibitory concentration assay (Thermus); conditions: for MIC: pure peptide, mean of triplicate assays
Method: as §1, §2

[7] = test system: Thermus scotoductus SE-1; assay: Agar diffusion assay with cell free supernatant of producing strains; conditions: zone diameter relative to Nisin A wild type (100)
Method: (§3) Agar diffusion assays were carried out in triplicate using nisin producing and indicator (T. thermophilus HB27 and T. scotoductus Se-1) strains. Both the producer and indicator strains were cultured as per conditions described above. One ml of overnight culture of indicators were added to 50ml of molten Castenholz agar, briefly swirled and poured. Wells were made using sterile glass pipette. To generate cell free supernatant from nisin producing strains, 10 mls of overnight cultures of the strains were centrifuged at 950g for 20 mins. The cell free supernatant was transferred to a sterile tube. 50 µl of cell free supernatant was added to wells described above. Plates were incubated at 55°C for 3 days and the zone of clearance measured.
(§4) The cell free supernatant of nisin A and nisin variant producing L. lactis was used to determine the bioactivity of these lantibiotics against T. thermophilus HB27 and T. scotoductus SE-1 using agar diffusion assays, with the zone of clearance representing the bioactivity of the producing strain (i.e., representing a combination of the amount of the peptide produced and the specific activity of that peptide). […] Among the variants tested were those with altered N-terminal domains. The N-terminal domain of nisin is important for binding with the pyrophosphate moiety of lipid II to mediate pore formation in the cell membrane. Lysine (K) at position 12, which serves as a small flexible region between ring B and C, and is one of among the 5 positively charged residues (K12, K22, K34, H27, […]) of nisin A that contributes to its cationic nature and its attraction to the cell envelope.

[8] = test system: Thermus thermophilus HB27; assay: as above; conditions: zone diameter relative to Nisin A wild type (100)
Method: as §3, §4

| SMILES | MIC [1] [µM] | MIC [2] [µM] | fold better activity than nisin A [3] [fold] | MIC [3] | MIC [4] [µM] | fold better activity than nisin A [5] [fold] | MIC [5] [µM] | fold better activity than nisin A [6] [fold] | MIC [6] | % of wild type [7] | % difference [8] | fold better activity than nisin A [1] [fold] |
| --- | --- | --- | --- | --- | --- | --- | --- | --- | --- | --- | --- | --- |
| C=C(NC(=O)[C@@H](NC(=O)[C@H](Cc1c[nH]cn1)NC(=O)[C@@H](NC(=O)[C@H](CO)NC(=O)[C@@H]1CS[C@@H](C)[C@H]2NC(=O)[C@H](C)NC(=O)[C@H](NC(=O)[C@H](CCCCN)NC(=O)[C@H](CCSC)NC(=O)[C@H](CC(N)=O)NC(=O)[C@@H]3CS[C@@H](C)[C@@H](NC(=O)[C@@H](NC(=O)[C@@H]4CS[C@@H](C)[C@@H](NC(=O)[C@@H]5CSC[C@@H](NC(=O)/C(=C/C)NC(=O)[C@@H](N)[C@@H](C)CC)C(=O)N[C@@H]([C@@H](C)CC)C(=O)NC(=C)C(=O)N[C@@H](CC(C)C)C(=O)N5)C(=O)N5CCC[C@H]5C(=O)NCC(=O)N4)C(C)C)C(=O)NCC(=O)N[C@@H](C)C(=O)N[C@@H](CC(C)C)C(=O)N[C@@H](CCSC)C(=O)NCC(=O)N3)[C@H](C)SC[C@H](NC2=O)C(=O)N[C@@H](Cc2c[nH]cn2)C(=O)N1)[C@@H](C)CC)C(C)C)C(=O)N[C@@H](CCCCN)C(=O)O [K12V] | 0.0156 (≈ 0.0519 µg/mL) | 0.0156 (≈ 0.0519 µg/mL) | 2 | 12.9 µg/L and 0.0039 µM | 0.0156 (≈ 0.0519 µg/mL) | 2 | 0.0039 (≈ 0.013 µg/mL) | 2 | 103.9 µg/L and 0.0312 µM | 125* (0.04) % | 145* (0.004) % | – |
| C=C(NC(=O)[C@@H](NC(=O)[C@H](Cc1c[nH]cn1)NC(=O)[C@@H](NC(=O)[C@H](CO)NC(=O)[C@@H]1CS[C@@H](C)[C@H]2NC(=O)[C@H](C)NC(=O)[C@H](NC(=O)[C@H](CCCCN)NC(=O)[C@H](CCSC)NC(=O)[C@H](CC(N)=O)NC(=O)[C@@H]3CS[C@@H](C)[C@@H](NC(=O)[C@H](CC(C)C)NC(=O)[C@@H]4CS[C@@H](C)[C@@H](NC(=O)[C@@H]5CSC[C@@H](NC(=O)/C(=C/C)NC(=O)[C@@H](N)[C@@H](C)CC)C(=O)N[C@@H]([C@@H](C)CC)C(=O)NC(=C)C(=O)N[C@@H](CC(C)C)C(=O)N5)C(=O)N5CCC[C@H]5C(=O)NCC(=O)N4)C(=O)NCC(=O)N[C@@H](C)C(=O)N[C@@H](CC(C)C)C(=O)N[C@@H](CCSC)C(=O)NCC(=O)N3)[C@H](C)SC[C@H](NC2=O)C(=O)N[C@@H](Cc2c[nH]cn2)C(=O)N1)[C@@H](C)CC)C(C)C)C(=O)N[C@@H](CCCCN)C(=O)O [K12L] | 0.0078 (≈ 0.026 µg/mL) | 0.0312 (≈ 0.104 µg/mL) | – | 0.0156 µM (≈ 0.0521 µg/mL) | 0.0078 (≈ 0.026 µg/mL) | – | 0.0078 (≈ 0.026 µg/mL) | – | 0.0625 µM (≈ 0.209 µg/mL) | – | 120% | 2 |
| C=C(NC(=O)[C@@H](NC(=O)[C@H](Cc1c[nH]cn1)NC(=O)[C@@H](NC(=O)[C@H](CO)NC(=O)[C@@H]1CS[C@@H](C)[C@H]2NC(=O)[C@H](C)NC(=O)[C@H](NC(=O)[C@H](C)NC(=O)CNC(=O)[C@@H]3CCCN3C(=O)[C@@H]3CS[C@@H](C)[C@@H](NC(=O)[C@H](CCCCN)NC(=O)[C@@H]4CS[C@@H](C)[C@@H](NC(=O)[C@@H]5CSC[C@@H](NC(=O)/C(=C/C)NC(=O)[C@@H](N)[C@@H](C)CC)C(=O)N[C@@H]([C@@H](C)CC)C(=O)NC(=C)C(=O)N[C@@H](CC(C)C)C(=O)N5)C(=O)N5CCC[C@H]5C(=O)NCC(=O)N4)C(=O)NCC(=O)N[C@@H](C)C(=O)N[C@@H](CC(C)C)C(=O)N[C@@H](CCSC)C(=O)NCC(=O)N3)[C@H](C)SC[C@H](NC2=O)C(=O)N[C@@H](Cc2c[nH]cn2)C(=O)N1)[C@@H](C)CC)C(C)C)C(=O)N[C@@H](CCCCN)C(=O)O [PGA] | 0.0312 (≈ 0.1 µg/mL) | 0.0625 (≈ 0.2 µg/mL) | – | 0.0156 µM (≈ 0.05 µg/mL) | 0.0078 (≈ 0.025 µg/mL) | – | 0.0156 (≈ 0.05 µg/mL) | – | 0.125 µM (≈ 0.401 µg/mL) | – | 113% | – |
| C=C(NC(=O)[C@@H](NC(=O)[C@H](Cc1c[nH]cn1)NC(=O)[C@@H](NC(=O)[C@H](CO)NC(=O)[C@@H]1CS[C@@H](C)[C@H]2NC(=O)[C@H](C)NC(=O)[C@H](NC(=O)[C@H](CCCCN)NC(=O)[C@H](C)NC(=O)[C@H](CC(N)=O)NC(=O)[C@@H]3CS[C@@H](C)[C@@H](NC(=O)[C@H](CCCCN)NC(=O)[C@@H]4CS[C@@H](C)[C@@H](NC(=O)[C@@H]5CSC[C@@H](NC(=O)/C(=C/C)NC(=O)[C@@H](N)[C@@H](C)CC)C(=O)N[C@@H]([C@@H](C)CC)C(=O)NC(=C)C(=O)N[C@@H](CC(C)C)C(=O)N5)C(=O)N5CCC[C@H]5C(=O)NCC(=O)N4)C(=O)NCC(=O)N[C@@H](C)C(=O)N[C@@H](CC(C)C)C(=O)N[C@@H](CCSC)C(=O)NCC(=O)N3)[C@H](C)SC[C@H](NC2=O)C(=O)N[C@@H](Cc2c[nH]cn2)C(=O)N1)[C@@H](C)CC)C(C)C)C(=O)N[C@@H](CCCCN)C(=O)O [M21A] | 0.0078 (≈ 0.0257 µg/mL) | 0.0625 (≈ 0.206 µg/mL) | – | 0.0312 µM (≈ 0.103 µg/mL) | 0.0078 (≈ 0.0257 µg/mL) | – | 0.0312 (≈ 0.103 µg/mL) | – | 0.0312 µM (≈ 0.103 µg/mL) | – | 158* (0.001) % | – |
| C=C(NC(=O)[C@@H](NC(=O)[C@H](Cc1c[nH]cn1)NC(=O)[C@@H](NC(=O)[C@H](CO)NC(=O)[C@@H]1CS[C@@H](C)[C@H]2NC(=O)[C@H](C)NC(=O)[C@H](NC(=O)[C@H](CCCCN)NC(=O)[C@H](C)NC(=O)[C@H](C)NC(=O)[C@@H]3CS[C@@H](C)[C@@H](NC(=O)[C@H](CCCCN)NC(=O)[C@@H]4CS[C@@H](C)[C@@H](NC(=O)[C@@H]5CSC[C@@H](NC(=O)/C(=C/C)NC(=O)[C@@H](N)[C@@H](C)CC)C(=O)N[C@@H]([C@@H](C)CC)C(=O)NC(=C)C(=O)N[C@@H](CC(C)C)C(=O)N5)C(=O)N5CCC[C@H]5C(=O)NCC(=O)N4)C(=O)NCC(=O)N[C@@H](C)C(=O)N[C@@H](CC(C)C)C(=O)N[C@@H](CCSC)C(=O)NCC(=O)N3)[C@H](C)SC[C@H](NC2=O)C(=O)N[C@@H](Cc2c[nH]cn2)C(=O)N1)[C@@H](C)CC)C(C)C)C(=O)N[C@@H](CCCCN)C(=O)O [AAK] | 0.0625 (≈ 0.203 µg/mL) | 0.0156 (≈ 0.0507 µg/mL) | – | 0.0312 µM (≈ 0.101 µg/mL) | 0.0156 (≈ 0.0507 µg/mL) | – | 0.0156 (≈ 0.0507 µg/mL) | – | 0.0625 µM (≈ 0.203 µg/mL) | 132* (0.004) % | – | – |
| C=C(NC(=O)[C@@H](NC(=O)[C@H](Cc1c[nH]cn1)NC(=O)[C@@H](NC(=O)[C@H](CO)NC(=O)[C@@H]1CS[C@@H](C)[C@H]2NC(=O)[C@H](C)NC(=O)[C@H](NC(=O)[C@H](CCC(N)=O)NC(=O)[C@H](C)NC(=O)[C@@H]3CCCN3C(=O)[C@@H]3CS[C@@H](C)[C@@H](NC(=O)[C@H](CCCCN)NC(=O)[C@@H]4CS[C@@H](C)[C@@H](NC(=O)[C@@H]5CSC[C@@H](NC(=O)/C(=C/C)NC(=O)[C@@H](N)[C@@H](C)CC)C(=O)N[C@@H]([C@@H](C)CC)C(=O)NC(=C)C(=O)N[C@@H](CC(C)C)C(=O)N5)C(=O)N5CCC[C@H]5C(=O)NCC(=O)N4)C(=O)NCC(=O)N[C@@H](C)C(=O)N[C@@H](CC(C)C)C(=O)N[C@@H](CCSC)C(=O)NCC(=O)N3)[C@H](C)SC[C@H](NC2=O)C(=O)N[C@@H](Cc2c[nH]cn2)C(=O)N1)[C@@H](C)CC)C(C)C)C(=O)N[C@@H](CCCCN)C(=O)O [PAQ] | 0.0156 (≈ 0.0511 µg/mL) | 0.0312 (≈ 0.102 µg/mL) | – | 0.0078 µM (≈ 0.0256 µg/mL) | 0.0039 (≈ 0.0128 µg/mL) | – | 0.0156 (≈ 0.0511 µg/mL) | – | 0.0625 µM (≈ 0.205 µg/mL) | – | 138* (0.02) % | – |
